This data set is described as follows: Human HepG2 cell viability assay in 384 well format. Type of data set: toxicity, cell-based. Details: dose 125 nL, time 70.5 hour; concentration not given beside the values. The following applies: HepG2 cells, read-out: Inhibition.
In the case of `CCc1nc(CNC(=O)C2CCC(=O)N(Cc3ccccc3F)C2)no1` (stereo unspecified), the cytotoxicity at 70.5 h is -8.67%.

As for `COCCCN(Cc1cnc(C2CCCCC2)nc1)C1CCN(C)CC1`, the cytotoxicity at 70.5 h was -16.3%.

Take `CCCN1C[C@H]2CC[C@@H]1CN(C(=O)Cc1c(C)nc(CC)[nH]c1=O)C2`: the cytotoxicity at 70.5 h is -8.7%.

Consider `CN(C)C1CCN(C(=O)c2cccc(S(=O)(=O)NCC3(C)COC3)c2)C1` (stereo unspecified), for which the cytotoxicity at 70.5 h was -9.11%.

Consider `Cc1cc(C(=O)N(C)Cc2ccoc2)c(NC(=O)C(C)(C)C)s1`, for which the cytotoxicity at 70.5 h is -3.77%.

For the compound `CCc1nnc(CNC(=O)CCC2CCCN(C)C2)s1` (stereo unspecified), the cytotoxicity at 70.5 h is -0.522%.

As for `Cc1nc(N(C)C)ncc1C(=O)N[C@H]1Cc2ccccc2[C@@H]1N`, the cytotoxicity at 70.5 h is -5.1%.

`CCCn1ccnc1-c1nccn1CCC(N)=O`: the cytotoxicity at 70.5 h is -7.75%.

`CCC[C@@H]1CN(C(=O)c2cc(-c3cccs3)n(C)n2)C[C@H]1N(C)C`: the cytotoxicity at 70.5 h was -8.43%.

For the compound `COc1nc2c(cc1C(=O)NCc1noc(-c3ccco3)n1)CCC2`, the cytotoxicity at 70.5 h was -7.17%.

As to `CCN(Cc1noc(C2CCC2)n1)C(=O)CCc1cc2n(n1)CCNC2`, the cytotoxicity at 70.5 h is -7.31%.

Turning to `Cc1nc(N2C[C@@H](CN3CCCN(C)CC3)[C@@H](CO)C2)c2ccsc2n1`, the cytotoxicity at 70.5 h came to 11.6%.

For the compound `CCN1CCC(CC(=O)NCCc2nc(N)cc(O)n2)CC1`, the cytotoxicity at 70.5 h was -2.8%.

Turning to `COc1ccc(OC)c(-c2nc(CN(C)Cc3noc(C)n3)c(C)o2)c1`, the cytotoxicity at 70.5 h was -21.2%.

With `CN1CCC(CNC(=O)CCSc2ccc3c(c2)OCCO3)C1` (stereo unspecified), the cytotoxicity at 70.5 h was -2.01%.

In the case of `COc1cccc(CNC(=O)N2CCN3CCNC(=O)C3C2)c1` (stereo unspecified), the cytotoxicity at 70.5 h was -10.4%.

In the case of `CCOc1ncccc1-c1cc2c(cc1C(N)=O)OCO2`, the cytotoxicity at 70.5 h is -3.42%.

For the compound `COc1ccc([C@@H](C)n2ccnc2-c2cc3n(n2)CCCNC3)cc1`, the cytotoxicity at 70.5 h amounted to 18.8%.

`COCCCN1CC2(CCN(C(=O)c3ccc(=O)n(C)c3)CC2)CC1=O`: the cytotoxicity at 70.5 h is -9.99%.

`CN(Cc1cccnc1)c1nc(-c2ccccn2)nc2c1CCNCC2`: the cytotoxicity at 70.5 h was -5.18%.

For `CC(C)c1nnsc1CNC(=O)C1CCN(C(=O)C2CC2)CC1`, the cytotoxicity at 70.5 h is 2.6%.

As for `CCN1CCCC1CN(Cc1cc[nH]n1)CC1CCN(CCOC)CC1` (stereo unspecified), the cytotoxicity at 70.5 h is 6.24%.

Take `N#Cc1ccccc1CN1CCC2(CC1)CC(c1ccccc1)C(=O)N2` (stereo unspecified): the cytotoxicity at 70.5 h was 14%.

With `CCOC(=O)C1(Cc2cccc(Cl)c2)CCCN(Cc2ncc[nH]2)C1` (stereo unspecified), the cytotoxicity at 70.5 h amounted to 0.345%.

`Cc1cc(CC(C)NC2CCSCC2)[nH]n1` (stereo unspecified): the cytotoxicity at 70.5 h was -5.1%.

In the case of `COc1ccc(C(=O)NC2CC2)c(OC2CCN(CCCSC)CC2)c1`, the cytotoxicity at 70.5 h is -1.03%.

`O=C(O)[C@H]1C[C@H](C(=O)NCc2ccncc2)CN(CCC(F)(F)F)C1`: the cytotoxicity at 70.5 h was -6.65%.

As for `N[C@@H]1c2ccccc2C2(CCN(C(=O)c3cncc(Cl)c3)CC2)[C@H]1O`, the cytotoxicity at 70.5 h was found to be 19%.

Take `Cc1ccc(CN(C)C(C(=O)O)c2ccc3c(c2)OCO3)o1` (stereo unspecified): the cytotoxicity at 70.5 h is -7.76%.

Turning to `COc1ccc(N2CCN(C(=O)Cn3nccc3C)CC2(C)C)cc1`, the cytotoxicity at 70.5 h was -0.615%.

With `O=C(C1CCCN(C2CCOCC2)C1)N1Cc2ccccc2C1` (stereo unspecified), the cytotoxicity at 70.5 h was determined as 13%.

On to `Cn1c(=O)oc2ccc(NC(=O)N3CCSCC3)cc21`, for which the cytotoxicity at 70.5 h was -18.1%.

For the compound `COc1ccc2c(C)c(C(=O)NC3CCN(S(C)(=O)=O)CC3)oc2c1`, the cytotoxicity at 70.5 h is -2.46%.

As to `CCC[C@H]1CN(c2nccc(OC)n2)C[C@@H]1NC(=O)C1CCOCC1`, the cytotoxicity at 70.5 h is -6.8%.

Consider `O[C@H]1[C@H](NCCc2cnccn2)c2ccccc2C12CCNCC2`, for which the cytotoxicity at 70.5 h was -3.75%.

`CCCC1(CO)CCCN(Cc2nccs2)C1` (stereo unspecified): the cytotoxicity at 70.5 h is -4.2%.

Take `Cc1noc2ncnc(N3CCC(O)(Cn4ccnc4)CC3)c12`: the cytotoxicity at 70.5 h is 4.45%.

As to `Cn1cc(C(=O)N2CCC(c3ncc[nH]3)CC2)cn1`, the cytotoxicity at 70.5 h is -17.5%.

For `COCC(=O)N1CCN(C(=O)Cc2cccs2)[C@H]2CS(=O)(=O)C[C@H]21`, the cytotoxicity at 70.5 h was -5.46%.

As to `CCN(CCn1cccn1)Cc1nc(-c2ccc(C)o2)oc1C`, the cytotoxicity at 70.5 h is 13%.

For the compound `Cc1cc(CC(C)Nc2nc(C3CCCC3)nc3c2cnn3C)[nH]n1` (stereo unspecified), the cytotoxicity at 70.5 h is -13%.

Take `Cc1cc(CNC(=O)C(c2ccc(F)cc2)N(C)C)n[nH]1` (stereo unspecified): the cytotoxicity at 70.5 h worked out at 7.79%.

As for `CN(C)c1ncc(CNC2CC(=O)N(CCc3cccc(Cl)c3)C2)s1` (stereo unspecified), the cytotoxicity at 70.5 h is -4.44%.

Take `Cc1nc(-c2ccncc2)ncc1C(C)NC(=O)Cn1ccccc1=O` (stereo unspecified): the cytotoxicity at 70.5 h was 9.51%.

`Cc1nn(C)c2nc(N3CCNC(=O)C3C(C)C)sc12` (stereo unspecified): the cytotoxicity at 70.5 h came out at 10.4%.

Turning to `CNC(=O)c1ccc(-n2c(COCC(=O)O)nc3c(C)cccc32)o1`, the cytotoxicity at 70.5 h is -1.45%.

Consider `COc1cccc(C2CCCN2C(=O)c2cc3c(nc2OC)CCC3)c1` (stereo unspecified), for which the cytotoxicity at 70.5 h was -2.74%.

Turning to `CCOC(=O)N1C[C@H]2CC[C@@H]1CN(Cc1ccccc1)C2`, the cytotoxicity at 70.5 h was -6.47%.

For `CC(=O)N[C@@H]1CN(C2CCN(c3ccccc3F)CC2)C[C@H]1C(C)C`, the cytotoxicity at 70.5 h is -10.5%.

In the case of `CC(C)(C)n1cc(C2=CCN(CCN3CCCCCC3)CC2)cn1`, the cytotoxicity at 70.5 h is -4.69%.

With `C[C@@H]1CN(Cc2cc3ccccc3n2C)CC[C@@]1(O)C1CC1`, the cytotoxicity at 70.5 h was -3.91%.

Regarding `O=C(c1ccc2c(c1)OCO2)N1C[C@@H](CN2CCCCC2)[C@@H](CO)C1`, the cytotoxicity at 70.5 h was -0.201%.

`CN1CCN([C@@H]2CCN(Cc3ccc4cc(F)ccc4n3)C[C@H]2O)CC1`: the cytotoxicity at 70.5 h was -1.96%.

Turning to `CCCn1ccnc1-c1nccn1CCN(C)C`, the cytotoxicity at 70.5 h was -2.58%.

Consider `O=C(O)[C@@H]1CN(C(=O)c2ccc(Cl)cc2)C[C@H]1c1cccc(F)c1`, for which the cytotoxicity at 70.5 h is -12.9%.

As to `CN(C)Cc1nnc(C2CCCN(c3nccc4ccccc34)C2)n1C` (stereo unspecified), the cytotoxicity at 70.5 h was -12.2%.

`O=C1CC[C@H]2CN(c3ncc(F)cn3)CC[C@H]2N1CCc1ccccn1`: the cytotoxicity at 70.5 h is -5.32%.

As for `Cc1c(CN2CCC(C(=O)O)(n3cccn3)CC2)oc2ccccc12`, the cytotoxicity at 70.5 h is -2.29%.

With `Cc1cc(C)nc(N(C)CCN(C)C2CCCC2)n1`, the cytotoxicity at 70.5 h was -6.11%.

In the case of `CC(C)Cc1cc(CNc2nc(-c3cccnc3)nc3c2CNC3)no1`, the cytotoxicity at 70.5 h was -15.7%.

For `Cc1nc(O)cc(C2CCCN(C(=O)c3cccc(N(C)C)c3)C2)n1` (stereo unspecified), the cytotoxicity at 70.5 h amounted to 5.24%.

As for `CCOc1ccc(CN(CCOC)c2nc(C)nc3oc(C)nc23)cc1`, the cytotoxicity at 70.5 h is -12.6%.

In the case of `CCc1cn[nH]c1C1CCCN(C(=O)c2cc(C(C)C)on2)C1` (stereo unspecified), the cytotoxicity at 70.5 h is -2.01%.

As to `CN(C)CCN1CC(C(=O)NCc2cccc(-n3cccn3)c2)CC1=O` (stereo unspecified), the cytotoxicity at 70.5 h is -0.603%.

Consider `COc1ccccc1CN1C(=O)O[C@@H]2CN(Cc3cccc(C)n3)C[C@@H]21`, for which the cytotoxicity at 70.5 h was determined as 20.9%.

As to `Cc1ccncc1-n1cc(CCO)cn1`, the cytotoxicity at 70.5 h is -5.86%.

Turning to `O=C1CCCN1c1cccc(N2CCC(NCCc3cscn3)CC2)c1`, the cytotoxicity at 70.5 h was -4.03%.

Turning to `CN(C)C(=O)c1ccc2c(c1)N(C)C(CC(=O)NCCOCCO)CO2` (stereo unspecified), the cytotoxicity at 70.5 h stood at 12.2%.

In the case of `O=C(c1cccc(C2CCNC2)c1)N1CCC(c2ccncc2)CC1` (stereo unspecified), the cytotoxicity at 70.5 h is -18.3%.

For `Cc1ccc(C(=O)N2CC(Oc3ccccc3C)C2)s1`, the cytotoxicity at 70.5 h was -12.1%.

Take `CN1CCN(C(=O)N2C[C@H]3CC[C@@H]2CN(Cc2ccccc2)C3)CC1`: the cytotoxicity at 70.5 h was -18.1%.

Take `COc1ccc(CN(C)C2CSCCSC2)c2cccnc12`: the cytotoxicity at 70.5 h was -6.62%.

For the compound `Cc1cc(C)cc(-c2cc(C3CCOC3)c(C#N)c(N)n2)c1` (stereo unspecified), the cytotoxicity at 70.5 h was 12.8%.

As to `Cn1ccnc1CN1C[C@@H](CN2CCCCCC2)[C@@H](CO)C1`, the cytotoxicity at 70.5 h was found to be 1.19%.

On to `CCc1[nH]c2c(CNC(=O)C3CCC(=O)NC3)cc(C)cc2c1C` (stereo unspecified), for which the cytotoxicity at 70.5 h is -9.39%.

For `CN(CCCc1ccccc1)C(=O)c1ccccc1NCC(=O)O`, the cytotoxicity at 70.5 h is -13.3%.

As for `Cc1cc(C(=O)N2CCc3c(ncnc3N3CCOCC3)C2)[nH]n1`, the cytotoxicity at 70.5 h is -1.64%.

Turning to `Cc1nc(C)c(C)c(N2CCC(O)(c3ccc(F)cc3)CC2)n1`, the cytotoxicity at 70.5 h was -6.02%.

For the compound `CCN(CC)C(=O)c1ccc(Cl)c(NC(=O)c2cc(C(C)C)on2)c1`, the cytotoxicity at 70.5 h was -12.4%.

Turning to `COCCC1(C(=O)O)CCCN(Cc2cc3c(cc2C)OCO3)C1` (stereo unspecified), the cytotoxicity at 70.5 h was -2.46%.

As to `CSc1ccc2c(C)cc(N[C@@H](C)CO)nc2c1`, the cytotoxicity at 70.5 h was 23.3%.

Regarding `CC(Cn1cncn1)NCCN1CCc2ccccc2C1` (stereo unspecified), the cytotoxicity at 70.5 h is -6.48%.

`CC(C)NS(=O)(=O)c1cc(C(=O)O)cc(-c2ccc3c(c2)OCO3)c1`: the cytotoxicity at 70.5 h was -9.21%.

As for `Cc1nc(O)cc(CCNC(=O)c2ccc(CN3CCCCC3)cc2)n1`, the cytotoxicity at 70.5 h was 0.488%.

Regarding `Nc1cnc(-c2cccc3ccnn23)cn1`, the cytotoxicity at 70.5 h was 14.2%.

Take `Cc1ccc(OC2(C(=O)NC(C)c3csc(C)n3)CCNCC2)cc1` (stereo unspecified): the cytotoxicity at 70.5 h was 22.5%.

For the compound `C=C(C)COc1ccc(C(=O)NCC2CC(CC)=NO2)cc1` (stereo unspecified), the cytotoxicity at 70.5 h is -15.2%.

For `CN(Cc1ccsc1)Cc1nc(-c2cnccn2)no1`, the cytotoxicity at 70.5 h was -6.12%.

Consider `CN(C)C(C(=O)NCCS(=O)(=O)N(C)C)c1cccc(F)c1` (stereo unspecified), for which the cytotoxicity at 70.5 h was 8.21%.

Turning to `O=C(Nc1nncs1)N1CCC(CCO)CC1`, the cytotoxicity at 70.5 h was -7.1%.

Regarding `Cc1ccc(-n2cc(CN3CCOCC(CN(C)C)C3)cn2)cc1C` (stereo unspecified), the cytotoxicity at 70.5 h was 37.2%.

With `Cc1nc(CCN)cc(N2CCCN(C(=O)c3ccco3)CC2)n1`, the cytotoxicity at 70.5 h was -4.43%.

For `CC(C)Cc1nc(CS(C)(=O)=O)n(-c2ccccn2)n1`, the cytotoxicity at 70.5 h is -7.54%.

Consider `Cc1ccnn1CC(=O)N(C)Cc1cnn(-c2ccccc2)c1`, for which the cytotoxicity at 70.5 h is -1.98%.

With `Nc1ncc(CN2C[C@H](C3CC3)[C@@H](N)C2)cn1`, the cytotoxicity at 70.5 h was -5.66%.

As for `CN(C)c1ncc(CN2CCCC(Nc3ccc4c(c3)OCCO4)C2)s1` (stereo unspecified), the cytotoxicity at 70.5 h was -12.3%.

The values above are taken from ChEMBL document CHEMBL3507680, “University of Dundee, Gates Library screen for HepG2 cell viability”.
